Reference: patent US20080267914A1, “Chemical Compounds” (priority 2005, published 2008)

Tests used:
[1] = system: HCV replicon cells Huh 9B; format: cell-based; conditions: Huh 9B replicon cells, 72 h incubation, methylene blue absorbance at 620 nm
Experimental: (§1) HCV replicon cells Huh 9B (ReBlikon), containing the firefly luciferase—ubiquitin—neomycin phosphotransferase fusion protein and EMCV-IRES driven HCV polyprotein with cell culture adaptive mutations.
(§2) Cells were cultured at 37° C. in a 5% CO2 environment and split twice a week on seeding at 2×10E6 cells/flask on day 1 and 1×10E6 3 days later. Some 0.25 mg/ml G418 was added to the culture medium (125 ul per 25 ml) but not the assay medium.
(§3) The culture medium consisted of DMEM with […] glucose and glutamax (Gibco 61965-026) supplemented with 1× non-essential amino acids, penicillin (100 IU/ml)/streptomycin (100 μg/ml), FCS (10%, 50 ml) and 1 mg/ml G418 (Invitrogen cat no 10131-027) & 10% foetal calf serum.
(§4) A flask of cells was trypsinised and a cell count carried out. Cells were diluted to 100,000 cells/ml and 100 μl of this used to seed one opaque white 96-well plate (for the replicon assay) and one flat-bottomed clear plate (for the tox assay) for every seven compounds to be tested for IC50. Wells G12 and H12 were left empty in the clear plate as the blank. Plates were then incubated at 37° C. in a 5% CO2 environment for 24 h.
(§5) On the following day compound dilutions are made up in medium at twice their desired final concentration in a clear round bottomed plate. All dilutions have a final DMSO concentration of 1%.
(§6) Once the dilution plate had been made up, controls and compounds were transferred to the assay plate (containing the cells) at 100 μl /well in duplicate plates.
(§7) Exception: in the white (replicon) plate, no compound was added to wells A1 and A2 and 100 μl of 1% DMSO was added to these instead. In the clear (Tox) plate, wells E12 & F12 only contained the DMSO control. Plates were then incubated at 37° C. with 5% CO2 for 72 h.
The clear plate was stained with 100 μl 0.5% methylene blue in 50% ethanol at RT for 1 h, followed by solvation of the absorbed methylene blue in 100 μl per well of 1% lauroylsarcosine. Absorbance of the plate was measured on a microplate spectrophotometer (Molecular Devices) and the absorbance for each concentration of compound expressed as a proportion of the relative DMSO control. The TD50, the concentration of drug required to reduce the total cell area by 50% relative to the DMSO controls can be calculated by plotting the absorbance at 620 nm vs drug concentration.

[2] = system: HCV replicon cells Huh 9B; assay: HCV replicon luciferase assay; format: cell-based, hepatitis C virus; conditions: Huh 9B replicon cells, 72 h incubation, luciferase readout
Experimental: as §1, §2, §3, §4, §5, §6, §7
At the end of the incubation time, the cells in the white plate were harvested by washing with 200 μl/well of warn (37° C.) PBS and lysed with 20 μl cell culture lysis buffer (Promega). After 5 min incubation @ RT, luciferin solution was added to the luciferase assay buffer (LARB at 200 μl per 10 ml LARB. The M injector of the microplate luminometer (Lmax, Molecular Devices) was primed with […] injections. Plate were inserted into the luminometer and 100 μl luciferase assay reagent was added by the injector on the luminometer. The signal was measured using a 1 second delay followed by a 4 second measurement programme. The IC50, the concentration of the drug required for reducing the replicon level by 50% in relation to the untreated cell control value, can be calculated from the plot of the percentage reduction of the luciferase activity vs. drug concentration.

Row | SMILES | Replicon TD5O [1] | IC50 ([2]; Hepatitis C virus) | IC50 [2]
1 | c1nc(Nc2ccc(N3CCOCC3)cc2)c2cc(-c3ccc(OCCN4CCOCC4)cc3)ccc2n1 [Example 1, {6-[4-(2-Morpholin-4-yl-ethoxy)-phenyl]-quinazolin-4-yl}-(4-morpholin-4-yl-phenyl)-amine] | *** (>25 uM = ***) | < 5000 nM | 
2 | CCOc1ccc(-c2ccc3ncnc(Nc4ccc(N5CCOCC5)cc4)c3c2)cc1OCC [Example 4] | ** (>10 uM = **) |  | < 1000 nM
3 | Fc1cc(-c2ccc3ncnc(Nc4ccc(N5CCOCC5)cc4)c3c2)ccc1OCCN1CCOCC1 [Example 5, {6-[3-Fluoro-4-(2-morpholin-4-yl-ethoxy)-phenyl]-quinazoline-4-yl}-(4-morpholin-4-yl-phenyl)-amine] | *** (>25 uM = ***) | < 1000 nM | 
4 | COc1ccc(-c2ccc3ncnc(Nc4ccc(N5CCOCC5)cc4)c3c2)cc1OC [Example 3, [6-(3,4-Dimethoxy-phenyl)-quinazolin-4-yl]-(4-morpholin-4-yl-phenyl)-amine] | ** (>10 uM = **) | < 1000 nM | 
5 | c1nc(Nc2ccc(N3CCOCC3)cc2)c2cc(-c3ccc(OCCCN4CCOCC4)cc3)ccc2n1 [Example 2, (4-Morpholin-4-yl-phenyl)-{6-[4-(3-morpholin-4-yl-propoxy)-phenyl]-quinazolin-4-yl}-amine] | ** (>10 uM = **) | < 1000 nM | 
